This note sets out measurements from ChEMBL document CHEMBL4373693, “Virtual Screening Approach and Investigation of Structure-Activity Relationships To Discover Novel Bacterial Topoisomerase Inhibitors Targeting Gram-Positive and Gram-Negative Pathogens” (J Med Chem, 2019).

Experiment [1] has as its target DNA gyrase (Escherichia coli, UniProt P0AES4+P0AES6). In words: Inhibition of Escherichia coli DNA gyrase. It counts as protein-complex assay.
Another experiment relates to Escherichia coli. The experiment is described as follows: Antibacterial activity against Escherichia coli. It counts as functional.
Experiment [2] addresses DNA gyrase (Staphylococcus aureus, UniProt P0A0K8+P20831). The experiment is described as follows: Inhibition of Staphylococcus aureus DNA gyrase. It counts as protein-complex assay.
Experiment [3] addresses DNA gyrase subunit A (Escherichia coli K-12, UniProt P0AES4). The experiment is described as follows: Inhibition of Escherichia coli DNA gyrase A assessed as reduction in enzyme-mediated supercoiling of relaxed pBR322 DNA measured after 60 mins by electrophoresis method.
In experiment [4] the target is DNA gyrase subunit A (Staphylococcus aureus, UniProt P20831). The experiment is described as follows: Inhibition of Staphylococcus aureus DNA gyrase A assessed as reduction in enzyme-mediated supercoiling of relaxed pBR322 DNA measured after 60 mins by electrophoresis method.
Sequence of DNA gyrase subunit A (Staphylococcus aureus, UniProt P20831) (P20831 whole entry): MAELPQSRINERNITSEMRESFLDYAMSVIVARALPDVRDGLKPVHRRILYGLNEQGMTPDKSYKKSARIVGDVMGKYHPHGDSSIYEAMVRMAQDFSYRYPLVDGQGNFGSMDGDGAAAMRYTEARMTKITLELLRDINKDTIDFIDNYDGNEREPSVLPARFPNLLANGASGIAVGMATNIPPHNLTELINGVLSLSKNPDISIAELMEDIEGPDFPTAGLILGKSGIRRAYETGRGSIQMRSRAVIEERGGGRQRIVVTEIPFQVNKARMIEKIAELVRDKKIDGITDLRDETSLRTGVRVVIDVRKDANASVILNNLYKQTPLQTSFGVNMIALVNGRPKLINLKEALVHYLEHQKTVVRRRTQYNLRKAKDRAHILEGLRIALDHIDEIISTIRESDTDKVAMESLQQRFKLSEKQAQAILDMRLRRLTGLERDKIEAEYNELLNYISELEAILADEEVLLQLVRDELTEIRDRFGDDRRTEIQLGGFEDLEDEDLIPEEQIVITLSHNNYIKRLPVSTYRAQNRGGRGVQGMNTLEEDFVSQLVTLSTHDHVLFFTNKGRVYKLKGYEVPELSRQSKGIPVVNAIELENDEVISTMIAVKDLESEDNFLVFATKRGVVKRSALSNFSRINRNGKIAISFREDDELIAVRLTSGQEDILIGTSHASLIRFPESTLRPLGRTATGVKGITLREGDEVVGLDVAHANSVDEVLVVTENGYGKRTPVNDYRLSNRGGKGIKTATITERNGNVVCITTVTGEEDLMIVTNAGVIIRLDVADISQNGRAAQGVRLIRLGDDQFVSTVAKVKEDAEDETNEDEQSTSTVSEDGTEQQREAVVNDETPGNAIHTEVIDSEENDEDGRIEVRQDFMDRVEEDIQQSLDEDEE
Experiment [5] has as its target DNA topoisomerase 4 subunit A (Staphylococcus aureus, UniProt P0C1U9). In words: Inhibition of Staphylococcus aureus DNA topoisomerase 4 subunit ParC assessed as reduction in decatenation of kinetoplast DNA incubated for 60 mins by ethidium bromide staining based gel electrophoresis method.
Experiment [6] addresses T1, DNA topoisomerase 4 subunit A (Escherichia coli K-12, UniProt P0AFI2).
T1 sequence (P0AFI2 whole entry): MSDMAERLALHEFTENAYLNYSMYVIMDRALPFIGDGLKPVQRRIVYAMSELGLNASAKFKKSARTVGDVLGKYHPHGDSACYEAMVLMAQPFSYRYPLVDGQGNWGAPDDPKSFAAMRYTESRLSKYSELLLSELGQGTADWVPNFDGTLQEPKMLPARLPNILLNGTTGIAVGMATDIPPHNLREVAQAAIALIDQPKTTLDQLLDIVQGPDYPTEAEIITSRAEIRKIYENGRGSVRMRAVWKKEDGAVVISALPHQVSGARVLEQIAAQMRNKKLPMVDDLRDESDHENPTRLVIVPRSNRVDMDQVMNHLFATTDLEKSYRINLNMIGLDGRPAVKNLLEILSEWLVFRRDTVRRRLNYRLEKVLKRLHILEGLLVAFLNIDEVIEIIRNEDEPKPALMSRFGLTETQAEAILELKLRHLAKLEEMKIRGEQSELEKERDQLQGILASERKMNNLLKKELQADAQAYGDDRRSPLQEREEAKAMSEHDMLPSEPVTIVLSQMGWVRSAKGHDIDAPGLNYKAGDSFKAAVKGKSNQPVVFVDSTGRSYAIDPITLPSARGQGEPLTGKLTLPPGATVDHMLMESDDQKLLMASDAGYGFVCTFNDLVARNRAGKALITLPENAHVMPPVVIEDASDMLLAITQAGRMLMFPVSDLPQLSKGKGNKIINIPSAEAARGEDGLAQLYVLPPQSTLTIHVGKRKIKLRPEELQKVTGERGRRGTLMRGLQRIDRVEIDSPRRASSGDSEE
The experiment is described as follows: Inhibition of Escherichia coli DNA topoisomerase 4 subunit ParC assessed as reduction in decatenation of kinetoplast DNA incubated for 60 mins by ethidium bromide staining based gel electrophoresis method.

In a further experiment the test system is Staphylococcus aureus. In words: Antibacterial activity against Staphylococcus aureus. It counts as functional.
A further experiment concerns the target Topoisomerase IV (Staphylococcus aureus, UniProt P0C1S7+P0C1U9). The experiment is described as follows: Inhibition of Staphylococcus aureus DNA topoisomerase 4. It counts as protein-complex assay.
Experiment [7] in a line: Inhibition of Escherichia coli DNA topoisomerase 4.

Converted amounts (≈) assume the structure as drawn.

A word on the IC50: it is the midpoint of a concentration-inhibition curve. The MIC is the lowest concentration that inhibits growth of the organism. A lower MIC goes with a more susceptible organism. As usually defined, the MIC90 is an inhibitory concentration at the 90% level, which refers to growth in some studies and to a panel of isolates in others. A higher MIC90 goes with lower susceptibility.

Sequence of DNA gyrase (Staphylococcus aureus, UniProt P0A0K8+P20831) (P0A0K8 whole entry): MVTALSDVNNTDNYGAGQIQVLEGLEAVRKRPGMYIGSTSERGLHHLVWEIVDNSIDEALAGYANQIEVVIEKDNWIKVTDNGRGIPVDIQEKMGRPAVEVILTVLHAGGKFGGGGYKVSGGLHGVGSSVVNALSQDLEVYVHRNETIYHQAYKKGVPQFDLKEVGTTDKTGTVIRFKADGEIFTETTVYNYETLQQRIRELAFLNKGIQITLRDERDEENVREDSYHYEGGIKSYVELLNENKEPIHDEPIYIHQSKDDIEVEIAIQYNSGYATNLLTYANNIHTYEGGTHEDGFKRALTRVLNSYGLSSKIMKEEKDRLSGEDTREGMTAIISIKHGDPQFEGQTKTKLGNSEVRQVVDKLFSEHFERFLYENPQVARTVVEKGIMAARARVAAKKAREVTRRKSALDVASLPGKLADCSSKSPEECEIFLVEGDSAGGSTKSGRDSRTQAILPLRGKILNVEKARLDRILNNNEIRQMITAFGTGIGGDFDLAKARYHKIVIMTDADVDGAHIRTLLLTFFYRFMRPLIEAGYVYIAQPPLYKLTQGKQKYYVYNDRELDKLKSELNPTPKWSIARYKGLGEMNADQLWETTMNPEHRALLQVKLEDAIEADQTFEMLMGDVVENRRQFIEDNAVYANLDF
Sequence of DNA gyrase (Staphylococcus aureus, UniProt P0A0K8+P20831) (P20831 whole entry): as the sequence (P20831 whole entry) above
Sequence of DNA gyrase subunit A (Escherichia coli K-12, UniProt P0AES4) (P0AES4 whole entry): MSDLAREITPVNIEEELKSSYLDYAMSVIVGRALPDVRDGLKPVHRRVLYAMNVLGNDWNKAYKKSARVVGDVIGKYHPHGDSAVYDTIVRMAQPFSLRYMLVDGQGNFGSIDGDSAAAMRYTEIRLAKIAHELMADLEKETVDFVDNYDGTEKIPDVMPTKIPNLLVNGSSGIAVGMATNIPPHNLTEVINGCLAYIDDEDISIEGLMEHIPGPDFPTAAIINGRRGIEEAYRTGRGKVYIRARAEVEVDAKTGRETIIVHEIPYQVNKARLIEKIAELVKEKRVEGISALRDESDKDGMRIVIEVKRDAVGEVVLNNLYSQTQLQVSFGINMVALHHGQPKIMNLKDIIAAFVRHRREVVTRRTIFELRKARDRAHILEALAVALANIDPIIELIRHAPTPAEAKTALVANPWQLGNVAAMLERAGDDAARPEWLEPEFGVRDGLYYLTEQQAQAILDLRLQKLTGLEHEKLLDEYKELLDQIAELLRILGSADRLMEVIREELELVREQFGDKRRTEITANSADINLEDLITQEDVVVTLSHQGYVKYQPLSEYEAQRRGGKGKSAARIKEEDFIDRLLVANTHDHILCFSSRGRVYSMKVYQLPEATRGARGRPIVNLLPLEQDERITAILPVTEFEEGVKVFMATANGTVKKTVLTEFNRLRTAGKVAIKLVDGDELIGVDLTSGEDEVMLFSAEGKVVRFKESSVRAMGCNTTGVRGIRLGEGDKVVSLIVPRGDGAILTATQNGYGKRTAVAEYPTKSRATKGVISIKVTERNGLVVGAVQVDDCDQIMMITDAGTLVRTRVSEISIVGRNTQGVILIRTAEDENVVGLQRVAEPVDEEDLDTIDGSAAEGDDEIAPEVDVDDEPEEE
Sequence of DNA topoisomerase 4 subunit A (Staphylococcus aureus, UniProt P0C1U9) (P0C1U9 whole entry): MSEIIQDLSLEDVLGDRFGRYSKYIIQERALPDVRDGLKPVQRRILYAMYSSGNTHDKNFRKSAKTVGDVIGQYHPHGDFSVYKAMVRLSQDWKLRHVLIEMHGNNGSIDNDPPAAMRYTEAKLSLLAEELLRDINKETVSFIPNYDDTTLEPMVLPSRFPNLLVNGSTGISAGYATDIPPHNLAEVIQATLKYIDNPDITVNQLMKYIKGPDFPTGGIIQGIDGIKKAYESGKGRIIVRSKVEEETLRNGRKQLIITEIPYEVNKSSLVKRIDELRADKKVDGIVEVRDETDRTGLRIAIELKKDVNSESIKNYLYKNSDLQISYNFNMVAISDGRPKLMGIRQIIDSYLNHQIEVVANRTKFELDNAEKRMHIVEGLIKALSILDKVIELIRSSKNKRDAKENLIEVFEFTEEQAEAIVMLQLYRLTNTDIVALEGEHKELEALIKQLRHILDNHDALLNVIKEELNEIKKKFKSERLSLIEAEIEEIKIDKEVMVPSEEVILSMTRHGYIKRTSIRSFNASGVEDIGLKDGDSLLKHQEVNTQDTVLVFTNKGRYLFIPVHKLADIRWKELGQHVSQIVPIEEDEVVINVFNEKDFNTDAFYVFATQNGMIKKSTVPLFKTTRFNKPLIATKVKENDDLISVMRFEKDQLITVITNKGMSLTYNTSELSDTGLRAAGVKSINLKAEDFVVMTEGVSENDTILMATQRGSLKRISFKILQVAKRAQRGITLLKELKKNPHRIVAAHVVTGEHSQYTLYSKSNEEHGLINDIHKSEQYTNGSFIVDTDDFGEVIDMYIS

Take `COc1ccc2ncc(C#N)c(CCN3CCC(NCc4cc5c(cn4)OCS5)CC3)c2c1`: the IC50 against DNA gyrase [1] turned out to be 100 nM; against DNA gyrase [2], 14 nM. In addition, in the experiment on Escherichia coli, the MIC stood at 0.06 µg/mL (≈ 0.13 µM).
On to `COc1ccc2ncc(F)c([C@@H](O)CC[C@@H]3CCN(CCSc4cccs4)C[C@@H]3C(=O)O)c2c1`, for which the half-maximal inhibitory concentration (IC50) at DNA gyrase subunit A [3] stood at 11000 nM; at DNA gyrase subunit A [4], 1000 nM; in [5], 18000 nM; in experiment [6], 2200 nM.
For the molecule `O=C1COc2ccc(N3C[C@H](CCCN[C@@H]4Cn5c(=O)ccc6ccc(F)c4c65)OC3=O)nc2N1`, the MIC90 is 0.016 µg/mL (≈ 0.0334 µM) in the experiment on Staphylococcus aureus and 0.5 µg/mL (≈ 1.04 µM) against Escherichia coli. Moreover, the IC50 against DNA gyrase [1] came to 125 nM; against Topoisomerase IV, 2000 nM; in experiment [7] it was 30 nM; at DNA gyrase [2], 8 nM.
